# According to patent US12146004B2, “Polymyxin compounds and uses thereof” (priority 2014, dated 2024):
# Like-named read-outs stand apart in the source and are kept apart here. Bridge positions count the residues as written; N and C are the ends. Square brackets hold non-standard residues; d marks the D form. Peptide text beside a SMILES is read from it. * marks the point of attachment. ξ: configuration not given here. dBip = N[C@H](Cc1ccc(-c2ccccc2)cc1)C(=O)O; dPhe(4-Br) = N[C@H](Cc1ccc(Br)cc1)C(=O)O; X13 = NCC[C@H](OCc1ccc(Cl)cc1)C(=O)*; Gly(octyl) = CCCCCCCC[C@H](N)C(=O)O; Octanoyl(6-Me) = CCC(C)CCCCC(=O)*; dCha = N[C@H](CC1CCCCC1)C(=O)O; Thr(3ξ) = CC(O)[C@H](N)C(=O)O; X1 = CC(C)CN1CCNC[C@H]1C(=O)*; X7 = NCC(CC(=O)*)c1ccccc1; Octanoyl = CCCCCCCC(=O)*; Dab = NCC[C@H](N)C(=O)O; X6 = CCCCCCC(CCN)C(=O)*; Dap = NC[C@H](N)C(=O)O; X18 = CCCCC(CCN)C(=O)*
# Tests used:
# Assay type in all cases: cell-based
# [1] = system: Acinetobacter baumannii
# Procedure, shortened: (§1)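 In vitro susceptibility was determined across up to nine strains of each pathogen, some resistant. Potency is given as MIC, μg/mL.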
# [2] = system: Escherichia coli
# Procedure, shortened: as §1
# [3] = system: Klebsiella pneumoniae
# Procedure, shortened: as §1
# [4] = system: Pseudomonas aeruginosa
# Procedure, shortened: as §1
# [5] = system: Escherichia coli, Pseudomonas aeruginosa, Klebsiella pneumoniae and Acinetobacter baumannii; assay: Susceptibility testing, comparisons in words across the Gram negative pathogens
# Protocol: To evaluate the potency and spectrum of the compounds, susceptibility testing was performed against up to nine strains of each of the Gram negative pathogens, Escherichia coli, Pseudomonas aeruginosa, Klebsiella pneumoniae and Acinetobacter baumannii.
# [6] = system: HK-2 cells
# Source text: Values are reported relative to Polymyxin B.
SMILES,MIC A. baumanii 053 [1] [µg/mL],MIC A. baumanii 056 [1] [µg/mL],MIC A. baumanii ATCC BAA-747 [1] [µg/mL],MIC E. coli 058 [2] [µg/mL],MIC E. coli 059 [2] [µg/mL],MIC E. coli 060 [2] [µg/mL],MIC E. coli 061 [2] [µg/mL],MIC E. coli ATCC 25922 [2] [µg/mL],MIC K. pneumoniae 063 [3] [µg/mL],MIC K. pneumoniae 064 [3] [µg/mL],MIC K. pneumoniae 065 [3] [µg/mL],MIC K. pneumoniae 066 [3] [µg/mL],MIC K. pneumoniae ATCC 4352 [3] [µg/mL],MIC P. aeruginosa 068 [4] [µg/mL],MIC P. aeruginosa 070 [4] [µg/mL],MIC P. aeruginosa ATCC 27853 [4] [µg/mL],MIC A. baumanii NCTC 13424 [1] [µg/mL],MIC K. pneumoniae ATCC 13882 [3] [µg/mL],MIC P. aeruginosa CCUG 59347 [4] [µg/mL],HK-2 IC50 [6] [µg/mL],further results
"CCC(C)CCCCC(=O)N[C@@H](CCN)C(=O)N[C@H](C(=O)N[C@@H](CCN)C(=O)N[C@H]1CCNC(=O)[C@H]([C@@H](C)O)NC(=O)[C@H](CCN)NC(=O)[C@H](CCN)NC(=O)[C@H](CC(C)C)NC(=O)[C@@H](Cc2ccc(Br)cc2)NC(=O)[C@H](CCN)NC1=O)C(C)O (stereo partly drawn) [Example 2, Polymyxin B[D-(4-bromoPhe)]-6]] ({Octanoyl(6-Me)}-[Dab][Thr(3ξ)][Dab][Dab][Dab][dPhe(4-Br)]L[Dab][Dab]T; lactam 4-C)",16,4,2,2,1,2,4,2,16,2,0.5,4,1,2,4,1,,,,,MIC K. pneumoniae 062 [3]: 8 µg/mL; MIC K. pneumoniae 067 [3]: 16 µg/mL; activity against polymyxin resistant strains ([5]; versus comparator compound): enhances activity against polymyxin resistant strains
"CC(C)C[C@@H]1NC(=O)[C@@H](CC2CCCCC2)NC(=O)[C@H](CCN)NC(=O)[C@@H](NC(=O)[C@H](CN)NC(=O)[C@@H](NC(=O)CC(CN)c2ccccc2)C(C)O)CCNC(=O)[C@H]([C@@H](C)O)NC(=O)[C@H](CCN)NC(=O)[C@H](CCN)NC1=O (stereo partly drawn) [Example 39, 4-amino-3-phenylbutanoyl L-Thr-L-Dap-polymyxin [D-cyclohexylalanine]-6 heptapeptide.] (X7-[Thr(3ξ)][Dap][Dab][Dab][dCha]L[Dab][Dab]T; lactam 3-C)",,,,,,,,,,,,,,,,,,,,,MIC A. baumanii 053 ([1]; strain 053): 32 µg/mL; MIC A. baumanii 056 ([1]; strain 056): 64 µg/mL; MIC A. baumanii ATCC BAA-747 ([1]; strain ATCC BAA-747): 0.06 µg/mL; MIC A. baumanii NCTC 13424 ([1]; strain NCTC 13424): 0.03 µg/mL; MIC E. coli 058 ([2]; strain 058): 4 µg/mL; MIC E. coli 061 ([2]; strain 061): 32 µg/mL; MIC E. coli ATCC 25922 ([2]; strain ATCC 25922): 0.125 µg/mL; MIC E. coli NCTC 9001 ([2]; strain NCTC 9001): 0.06 µg/mL; MIC K. pneumoniae 063 ([3]; strain 063): 64 µg/mL; MIC K. pneumoniae 065 ([3]; strain 065): 4 µg/mL; MIC K. pneumoniae ATCC 13882 ([3]; strain ATCC 13882): 0.125 µg/mL; MIC P. aeruginosa 068 ([4]; strain 068): 4 µg/mL; MIC P. aeruginosa 070 ([4]; strain 070): 4 µg/mL; MIC P. aeruginosa ATCC 27853 ([4]; strain ATCC 27853): 0.5 µg/mL; MIC P. aeruginosa CCUG 59347 ([4]; strain CCUG 59347): 0.5 µg/mL; HK-2 IC50 ([6]; HK-2 cells): 337 µg/mL
"CC(C)C[C@@H]1NC(=O)[C@@H](CC2CCCCC2)NC(=O)[C@H](CCN)NC(=O)[C@@H](NC(=O)[C@H](CN)NC(=O)[C@@H](NC(=O)[C@H](CCN)OCc2ccc(Cl)cc2)[C@@H](C)O)CCNC(=O)[C@H]([C@@H](C)O)NC(=O)[C@H](CCN)NC(=O)[C@H](CCN)NC1=O [Example 74, (S)-4-amino-2-((4-chlorobenzyl)oxy) butanoyl L-Thr-L-Dap-polymyxin [D-cyclohexylalanine]-6 heptapeptide.] (X13-T[Dap][Dab][Dab][dCha]L[Dab][Dab]T; lactam 3-C)",32,32,0.125,2,,,16,0.125,16,,2,,,4,4,0.25,0.125,0.25,0.25,52,

# The next lines start with results.
MIC A. baumanii 053 [1] [µg/mL],MIC A. baumanii 056 [1] [µg/mL],MIC A. baumanii ATCC BAA-747 [1] [µg/mL],MIC E. coli 058 [2] [µg/mL],MIC E. coli 059 [2] [µg/mL],MIC E. coli 060 [2] [µg/mL],MIC E. coli 061 [2] [µg/mL],MIC E. coli ATCC 25922 [2] [µg/mL],MIC K. pneumoniae 063 [3] [µg/mL],MIC K. pneumoniae 064 [3] [µg/mL],MIC K. pneumoniae 065 [3] [µg/mL],MIC K. pneumoniae 066 [3] [µg/mL],MIC K. pneumoniae ATCC 4352 [3] [µg/mL],MIC P. aeruginosa 068 [4] [µg/mL],MIC P. aeruginosa 070 [4] [µg/mL],MIC P. aeruginosa ATCC 27853 [4] [µg/mL],MIC A. baumanii NCTC 13424 [1] [µg/mL],MIC K. pneumoniae ATCC 13882 [3] [µg/mL],MIC P. aeruginosa CCUG 59347 [4] [µg/mL],HK-2 IC50 [6] [µg/mL],SMILES,further results
>256,256,0.25,8,16,8,32,0.25,128,32,16,32,0.125,32,,0.5,,,,316,"CC(C)C[C@@H]1NC(=O)[C@@H](Cc2ccccc2)NC(=O)[C@H](CCN)NC(=O)[C@@H](NC(=O)[C@H](CN)NC(=O)[C@@H](NC(=O)[C@@H]2CNCCN2CC(C)C)C(C)O)CCNC(=O)[C@H]([C@@H](C)O)NC(=O)[C@H](CCN)NC(=O)[C@H](CCN)NC1=O (stereo partly drawn) [Example C2, (S)-1-isobutyl piperazine-2-carbonyl-L-Thr-L-Dap-polymyxin B heptapeptide, reference compound] (X1-[Thr(3ξ)][Dap][Dab][Dab][dF]L[Dab][Dab]T; lactam 3-C)",MIC K. pneumoniae 067 [3]: >256 µg/mL
16,16,1,2,1,4,8,0.5,8,4,0.5,4,0.5,2,4,1,,,,3,"CCC(C)CCCCC(=O)N[C@@H](CCN)C(=O)N[C@H](C(=O)N[C@@H](CCN)C(=O)N[C@H]1CCNC(=O)[C@H]([C@@H](C)O)NC(=O)[C@H](CCN)NC(=O)[C@H](CCN)NC(=O)[C@H](CC(C)C)NC(=O)[C@@H](Cc2ccc(-c3ccccc3)cc2)NC(=O)[C@H](CCN)NC1=O)C(C)O (stereo partly drawn) [Example C3, reference compound] ({Octanoyl(6-Me)}-[Dab][Thr(3ξ)][Dab][Dab][Dab][dBip]L[Dab][Dab]T; lactam 4-C)",MIC K. pneumoniae 062 [3]: 32 µg/mL; MIC K. pneumoniae 067 [3]: 32 µg/mL
,,1,>64,,,,1.0,,,>64,,0.25,,,1,0.5,1,2,,"CCCCC(CCN)C(=O)N[C@H](C(=O)N[C@@H](CCN)C(=O)N[C@H]1CCNC(=O)[C@H]([C@@H](C)O)NC(=O)[C@H](CCN)NC(=O)[C@H](CCN)NC(=O)[C@H](CC(C)C)NC(=O)[C@@H](Cc2ccccc2)NC(=O)[C@H](CCN)NC1=O)C(C)O (stereo partly drawn) [Example C4, 2-(2-Aminoethyl) hexanoyl polymyxin B nonapeptide, reference compound] (X18-[Thr(3ξ)][Dab][Dab][Dab][dF]L[Dab][Dab]T; lactam 3-C)",activity [5]: only moderate activity
>64,16,0.125,2,,,16,0.06,8,,1,,0.06,8,32,0.125,0.25,0.125,0.5,29,"CCCCCCC(CCN)C(=O)N[C@H](C(=O)N[C@@H](CCN)C(=O)N[C@H]1CCNC(=O)[C@H]([C@@H](C)O)NC(=O)[C@H](CCN)NC(=O)[C@H](CCN)NC(=O)[C@H](CC(C)C)NC(=O)[C@@H](Cc2ccccc2)NC(=O)[C@H](CCN)NC1=O)C(C)O (stereo partly drawn) [Example C5, 2-(2-Aminoethyl) octanoyl polymyxin B nonapeptide, reference compound] (X6-[Thr(3ξ)][Dab][Dab][Dab][dF]L[Dab][Dab]T; lactam 3-C)",MIC E. coli NCTC 9001 [2]: 0.03 µg/mL
,,1,2,,,,1,,,2,,,,,0.5,1,1,2,,"CCCCCCCC[C@@H]1NC(=O)[C@@H](Cc2ccccc2)NC(=O)[C@H](CCN)NC(=O)[C@@H](NC(=O)[C@H](CCN)NC(=O)[C@@H](NC(=O)[C@H](CCN)NC(=O)CCCCCCC)[C@@H](C)O)CCNC(=O)[C@H]([C@@H](C)O)NC(=O)[C@H](CCN)NC(=O)[C@H](CCN)NC1=O [Example C7, octanoyl-Dab-Thr-Dab-Cy[Dab-Dab-D-Phe-L-OctGly-Dab-Dab-Thr], reference compound] (Octanoyl-[Dab]T[Dab][Dab][Dab][dF][Gly(octyl)][Dab][Dab]T; lactam 4-C)",MIC A. baumannii CA053 [1]: 4 µg/mL; MIC A. baumannii CA056 [1]: 4 µg/mL; MIC E. coli CA059 [2]: 2 µg/mL; MIC E. coli CA060 [2]: 2 µg/mL; MIC E. coli CA061 [2]: 4 µg/mL; MIC K. pneumoniae CA062 [3]: 16 µg/mL; MIC K. pneumoniae CA063 [3]: 8 µg/mL; MIC K. pneumoniae CA064 [3]: 4 µg/mL; MIC K. pneumoniae CA066 [3]: 2 µg/mL; MIC K. pneumoniae CA067 [3]: 64 µg/mL; MIC K. pneumoniae N655 [3]: 8 µg/mL; MIC P. aeruginosa CA068 [4]: 4 µg/mL; MIC P. aeruginosa CA070 [4]: 2 µg/mL; activity against polymyxin-susceptible strains ([5]; versus compounds in a more negative A Log P range): less active against polymyxin-susceptible strains
